Test results as given in patent US9932314B2, “Pyrazole compounds and their use as T-type calcium channel blockers” (IDORSIA PHARMACEUTICALS LTD, priority 2015, dated 2018).

Target: T1, voltage-dependent T-type calcium channel subunit alpha-1G (Cav3.2) (Homo sapiens, UniProt O95180)
T1 construct: expressed in transfected cells; host or cells: HEK293
Assay: FLIPR calcium flux assay, HEK293 cells recombinantly expressing Cav3.2
Assay type: cell-based
Settings: Cav3.2-channel, Fluo-4-AM, 3 min incubation, stimulation with 10 mM CaCl2
Outline: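 HEK293 cells stably expressing human Cav3.2 were loaded with Fluo-4-AM. Compounds diluted in TEAC buffer (pH 7.2) were preincubated for 3 min, then Ca2+ entry was triggered by 10 mM final CaCl2. Inhibition curves were fitted sigmoidally to the area under the fluorescence trace.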

T1 sequence (O95180 whole entry): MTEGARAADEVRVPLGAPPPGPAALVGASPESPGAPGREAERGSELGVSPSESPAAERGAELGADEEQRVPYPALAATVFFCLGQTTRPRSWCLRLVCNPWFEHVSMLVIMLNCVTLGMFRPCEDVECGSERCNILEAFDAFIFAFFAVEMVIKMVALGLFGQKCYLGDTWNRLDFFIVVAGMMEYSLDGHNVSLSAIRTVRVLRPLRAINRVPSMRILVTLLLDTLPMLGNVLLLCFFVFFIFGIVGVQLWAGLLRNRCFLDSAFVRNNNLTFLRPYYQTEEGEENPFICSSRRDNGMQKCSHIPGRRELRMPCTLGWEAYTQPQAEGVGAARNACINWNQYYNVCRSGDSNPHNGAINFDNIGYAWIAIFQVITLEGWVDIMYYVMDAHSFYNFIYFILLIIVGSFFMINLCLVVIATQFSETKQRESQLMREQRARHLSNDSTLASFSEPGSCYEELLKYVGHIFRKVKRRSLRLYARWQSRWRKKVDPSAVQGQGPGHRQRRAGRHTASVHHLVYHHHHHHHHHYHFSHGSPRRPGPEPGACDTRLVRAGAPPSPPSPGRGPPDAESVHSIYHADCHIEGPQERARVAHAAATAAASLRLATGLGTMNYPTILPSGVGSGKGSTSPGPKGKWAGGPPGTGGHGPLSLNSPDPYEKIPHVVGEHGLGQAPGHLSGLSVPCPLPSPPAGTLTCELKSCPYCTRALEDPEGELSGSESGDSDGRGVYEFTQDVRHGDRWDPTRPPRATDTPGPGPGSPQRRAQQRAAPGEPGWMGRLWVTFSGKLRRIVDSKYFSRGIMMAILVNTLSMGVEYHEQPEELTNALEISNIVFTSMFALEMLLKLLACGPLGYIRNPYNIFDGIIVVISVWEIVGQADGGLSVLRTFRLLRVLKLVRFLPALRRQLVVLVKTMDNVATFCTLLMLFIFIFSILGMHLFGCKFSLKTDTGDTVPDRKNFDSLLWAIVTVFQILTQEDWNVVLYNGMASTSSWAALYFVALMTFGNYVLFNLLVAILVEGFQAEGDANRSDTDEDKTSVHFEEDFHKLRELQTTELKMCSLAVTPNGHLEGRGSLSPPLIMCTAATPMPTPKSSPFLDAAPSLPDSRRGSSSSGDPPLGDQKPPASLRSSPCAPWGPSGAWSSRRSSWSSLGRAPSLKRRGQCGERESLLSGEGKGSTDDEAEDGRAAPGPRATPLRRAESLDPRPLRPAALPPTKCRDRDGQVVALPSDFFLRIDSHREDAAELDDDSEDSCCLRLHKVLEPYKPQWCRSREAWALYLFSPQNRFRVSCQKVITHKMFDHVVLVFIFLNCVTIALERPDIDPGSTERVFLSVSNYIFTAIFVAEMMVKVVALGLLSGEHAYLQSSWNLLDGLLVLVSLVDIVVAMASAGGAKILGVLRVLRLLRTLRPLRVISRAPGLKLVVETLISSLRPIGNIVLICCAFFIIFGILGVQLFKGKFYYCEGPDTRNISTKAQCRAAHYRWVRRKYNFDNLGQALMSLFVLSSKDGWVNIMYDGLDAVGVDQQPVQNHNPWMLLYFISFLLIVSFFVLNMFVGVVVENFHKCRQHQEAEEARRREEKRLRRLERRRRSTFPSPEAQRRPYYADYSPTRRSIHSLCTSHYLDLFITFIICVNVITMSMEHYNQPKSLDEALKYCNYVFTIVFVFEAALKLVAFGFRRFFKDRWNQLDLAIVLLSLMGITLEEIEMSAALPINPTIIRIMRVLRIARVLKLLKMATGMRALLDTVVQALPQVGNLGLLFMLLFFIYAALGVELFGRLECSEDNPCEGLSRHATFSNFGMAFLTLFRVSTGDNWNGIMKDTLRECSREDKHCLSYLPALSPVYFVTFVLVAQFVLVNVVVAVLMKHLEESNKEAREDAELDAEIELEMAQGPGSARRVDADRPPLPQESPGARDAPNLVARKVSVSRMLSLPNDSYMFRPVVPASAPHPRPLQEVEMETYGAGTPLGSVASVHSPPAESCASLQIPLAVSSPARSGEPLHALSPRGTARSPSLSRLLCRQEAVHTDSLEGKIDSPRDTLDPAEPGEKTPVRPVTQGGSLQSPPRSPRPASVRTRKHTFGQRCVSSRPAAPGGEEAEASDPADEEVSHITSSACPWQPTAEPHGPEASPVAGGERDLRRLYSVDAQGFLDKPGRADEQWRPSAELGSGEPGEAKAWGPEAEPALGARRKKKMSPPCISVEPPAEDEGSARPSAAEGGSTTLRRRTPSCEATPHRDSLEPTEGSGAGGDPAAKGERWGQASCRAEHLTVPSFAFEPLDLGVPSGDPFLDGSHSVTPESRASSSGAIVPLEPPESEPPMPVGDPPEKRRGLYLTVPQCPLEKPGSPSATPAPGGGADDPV

| SMILES | IC50 [nM] |
| --- | --- |
| N#Cc1c(F)cc(Cn2ccc(NC(=O)Cc3ccc(OCC4CC(F)(F)C4)cc3)n2)cc1F [Example 363, N-[1-(4-Cyano-3,5-difluoro-benzyl)-1H-pyrazol-3-yl]-2-[4-(3,3-difluoro-cyclobutylmethoxy)-phenyl]-acetamide] | 51 |
| COCCN(C)c1ccc(CC(=O)Nc2ccn(Cc3ccc(F)cc3)n2)cc1 [Example 128, N-[1-(4-Fluoro-benzyl)-1H-pyrazol-3-yl]-2-{4-[(2-methoxy-ethyl)-methyl-amino]-phenyl}-acetamide] | 9.7 |
| O=C(Cc1ccc(N2CC[C@@H](F)C2)cc1)Nc1ccn(Cc2ccc(F)cc2)n1 [Example 70, N-[1-(4-Fluoro-benzyl)-1H-pyrazol-3-yl]-2-[4-((R)-3-fluoro-pyrrolidin-1-yl)-phenyl]-acetamide] | 11 |
| COC1(c2ccc(CC(=O)Nc3ccn(Cc4ccc(C#N)cn4)n3)cc2)CC1 [Example 384, N-[1-(5-Cyano-pyridin-2-ylmethyl)-1H-pyrazol-3-yl]-2-[4-(1-methoxy-cyclopropyl)-phenyl]-acetamide] | 128 |
| CN(C)c1ccc(CC(=O)Nc2ccn(Cc3ccc(Br)cc3)n2)cc1 [Example 239, N-[1-(4-Bromo-benzyl)-1H-pyrazol-3-yl]-2-(4-dimethylamino-phenyl)-acetamide] | 2.4 |
| CC(C)(c1ccc(CC(=O)Nc2ccn(Cc3ccc(C#N)cn3)n2)cc1)C(F)(F)F [Example 376, N-[1-(5-Cyano-pyridin-2-ylmethyl)-1H-pyrazol-3-yl]-2-[4-(2,2,2-trifluoro-1,1-dimethyl-ethyl)-phenyl]-acetamide] | 20 |
| Cn1ncc2cc(CC(=O)Nc3ccn(Cc4ccc(C#N)c(F)c4)n3)ccc21 [Example 255, N-[1-(4-Cyano-3-fluoro-benzyl)-1H-pyrazol-3-yl]-2-(1-methyl-1H-indazol-5-yl)-acetamide] | 52 |
| CC(C)Cc1ccc(CC(=O)Nc2ccn(Cc3ccc(F)cc3)n2)cc1 [Example 147, N-[1-(4-Fluoro-benzyl)-1H-pyrazol-3-yl]-2-(4-isobutyl-phenyl)-acetamide] | 13 |
| CC1(COc2ccc(CC(=O)Nc3ccn(Cc4ccc(C#N)cc4)n3)cc2)COC1 [Example 285, N-[1-(4-Cyano-benzyl)-1H-pyrazol-3-yl]-2-[4-(3-methyl-oxetan-3-ylmethoxy)-phenyl]-acetamide] | 208 |
| Cc1ccc(Cn2ccc(NC(=O)Cc3ccc(C(C)(C)C)cc3)n2)nc1C#N [Example 371, 2-(4-tert-Butyl-phenyl)-N-[1-(6-cyano-5-methyl-pyridin-2-ylmethyl)-1H-pyrazol-3-yl]-acetamide] | 13 |
| CC(C)c1ccc(CC(=O)Nc2ccn(Cc3ccc(C#N)c(F)n3)n2)cc1 [Example 148, N-[1-(5-Cyano-6-fluoro-pyridin-2-ylmethyl)-1H-pyrazol-3-yl]-2-(4-isopropyl-phenyl)-acetamide] | 7.6 |
| COCCN(C)c1ccc(CC(=O)Nc2ccn(Cc3ccc(C#N)cn3)n2)cn1 [Example 179, N-[1-(5-Cyano-pyridin-2-ylmethyl)-1H-pyrazol-3-yl]-2-{6-[(2-methoxy-ethyl)-methyl-amino]-pyridin-3-yl}-acetamide] | 2500 |
| CC(C)c1ccc(CC(=O)Nc2ccn(Cc3ccc(Br)cn3)n2)cc1 [Example 94, N-[1-(5-Bromo-pyridin-2-ylmethyl)-1H-pyrazol-3-yl]-2-(4-isopropyl-phenyl)-acetamide] | 8.3 |
| N#Cc1ccc(Cn2ccc(NC(=O)Cc3ccc(OCC4CC(F)(F)C4)cc3)n2)cc1F [Example 289, N-[1-(4-Cyano-3-fluoro-benzyl)-1H-pyrazol-3-yl]-2-[4-(3,3-difluoro-cyclobutylmethoxy)-phenyl]-acetamide] | 23 |
| N#Cc1ccc(Cn2ccc(NC(=O)Cc3ccc(N4CCC(F)(F)C4)nc3)n2)cc1 [Example 121, N-[1-(4-Cyano-benzyl)-1H-pyrazol-3-yl]-2-[6-(3,3-difluoro-pyrrolidin-1-yl)-pyridin-3-yl]-acetamide] | 68 |
| CCN(CC)c1ccc(CC(=O)Nc2ccn(Cc3ccc(OC)cc3)n2)cn1 [Example 191, 2-(6-Diethylamino-pyridin-3-yl)-N-[1-(4-methoxy-benzyl)-1H-pyrazol-3-yl]-acetamide] | 93 |
| CN(C)c1ccc(CC(=O)Nc2ccn(Cc3ccc(Cl)cc3)n2)cn1 [Example 5, N-[1-(4-Chloro-benzyl)-1H-pyrazol-3-yl]-2-(6-dimethylamino-pyridin-3-yl)-acetamide] | 20 |
| N#Cc1ccc(Cn2ccc(NC(=O)Cc3ccc(N4CC[C@@H](F)C4)cc3)n2)nc1 [Example 89, N-[1-(5-Cyano-pyridin-2-ylmethyl)-1H-pyrazol-3-yl]-2-[4-((R)-3-fluoro-pyrrolidin-1-yl)-phenyl]-acetamide] | 61 |
| CCN(CC)c1ccc(CC(=O)Nc2ccn(Cc3ccc(C#N)cc3)n2)cc1 [Example 114, N-[1-(4-Cyano-benzyl)-1H-pyrazol-3-yl]-2-(4-diethylamino-phenyl)-acetamide] | 14 |

| SMILES | IC50 [nM] |
| --- | --- |
| CCc1ccc(Cn2ccc(NC(=O)Cc3ccc(N(C)C)cc3)n2)cc1 [Example 16, 2-(4-Dimethylamino-phenyl)-N-[1-(4-ethyl-benzyl)-1H-pyrazol-3-yl]-acetamide] | 10 |
| CCN(C)c1ccc(CC(=O)Nc2ccn(Cc3ccc(F)c(F)c3)n2)cc1 [Example 130, N-[1-(3,4-Difluoro-benzyl)-1H-pyrazol-3-yl]-2-[4-(ethyl-methyl-amino)-phenyl]-acetamide] | 293 |
| Cc1nn(C)c2ccc(CC(=O)Nc3ccn(Cc4cc(F)c(C#N)c(F)c4)n3)cc12 [Example 348, N-[1-(4-Cyano-3,5-difluoro-benzyl)-1H-pyrazol-3-yl]-2-(1,3-dimethyl-1H-indazol-5-yl)-acetamide] | 29 |
| Cc1cn(C)c2ncc(CC(=O)Nc3ccn(Cc4ccc(C#N)cn4)n3)cc12 [Example 322, N-[1-(5-Cyano-pyridin-2-ylmethyl)-1H-pyrazol-3-yl]-2-(1,3-dimethyl-1H-pyrrolo[2,3-b]pyridin-5-yl)-acetamide] | 856 |
| O=C(Cc1ccc(-c2ccccn2)cc1)Nc1ccn(Cc2ccc(F)cc2)n1 [Example 82, N-[1-(4-Fluoro-benzyl)-1H-pyrazol-3-yl]-2-(4-pyridin-2-yl-phenyl)-acetamide] | 33 |
| COCCN(C)c1ccc(CC(=O)Nc2ccn(Cc3ccc(F)cc3)n2)cn1 [Example 182, N-[1-(4-Fluoro-benzyl)-1H-pyrazol-3-yl]-2-{6-[(2-methoxy-ethyl)-methyl-amino]-pyridin-3-yl}-acetamide] | 65 |
| CN(c1ccc(CC(=O)Nc2ccn(Cc3ccc(F)c(F)c3)n2)cn1)C1CC1 [Example 165, 2-[6-(Cyclopropyl(methyl)amino)-pyridin-3-yl]-N-[1-(3,4-difluoro-benzyl)-1H-pyrazol-3-yl]-acetamide] | 13 |
| CC(C)c1ccc(CC(=O)Nc2ccn(Cc3ccc(C#N)c(Cl)n3)n2)cc1 [Example 110, N-[1-(6-Chloro-5-cyano-pyridin-2-ylmethyl)-1H-pyrazol-3-yl]-2-(4-isopropyl-phenyl)-acetamide] | 14 |
| O=C(Cc1ccc2[nH]c(=O)oc2c1)Nc1ccn(Cc2ccc(F)c(F)c2)n1 [Example 218, N-[1-(3,4-Difluoro-benzyl)-1H-pyrazol-3-yl]-2-(2-oxo-2,3-dihydro-benzooxazol-6-yl)-acetamide] | 79 |
| Cn1ccc2cc(CC(=O)Nc3ccn(Cc4ccc(F)c(C#N)c4)n3)ccc21 [Example 310, N-[1-(3-Cyano-4-fluoro-benzyl)-1H-pyrazol-3-yl]-2-(1-methyl-1H-indol-5-yl)-acetamide] | 13 |
| CN(C)c1ccc(CC(=O)Nc2ccn(Cc3ccc(Cl)c(F)c3)n2)cn1 [Example 42, N-[1-(4-Chloro-3-fluoro-benzyl)-1H-pyrazol-3-yl]-2-(6-dimethylamino-pyridin-3-yl)-acetamide] | 19 |
| CC(C)Oc1nc(Cn2ccc(NC(=O)Cc3ccc(C(C)C)cc3)n2)ccc1C#N [Example 118, N-[1-(5-Cyano-6-isopropoxy-pyridin-2-ylmethyl)-1H-pyrazol-3-yl]-2-(4-isopropyl-phenyl)-acetamide] | 97 |
| CN(C)c1ccc(CC(=O)Nc2ccn(Cc3ccc(F)cn3)n2)cc1 [Example 149, 2-(4-Dimethylamino-phenyl)-N-[1-(5-fluoro-pyridin-2-ylmethyl)-1H-pyrazol-3-yl]-acetamide] | 85 |
| CC(C)c1ccc(CC(=O)Nc2ccn(Cc3cc(C#N)c(F)cn3)n2)cc1 [Example 401, N-[1-(4-Cyano-5-fluoro-pyridin-2-ylmethyl)-1H-pyrazol-3-yl]-2-(4-isopropyl-phenyl)-acetamide] | 126 |
| Cc1ccc(Cn2ccc(NC(=O)Cc3ccc(C(C)C)cc3)n2)cc1 [Example 9, 2-(4-Isopropyl-phenyl)-N-[1-(4-methyl-benzyl)-1H-pyrazol-3-yl]-acetamide] | 12 |
| COc1nc(Cn2ccc(NC(=O)Cc3ccc(C(C)C)cc3)n2)ccc1C#N [Example 116, N-[1-(5-Cyano-6-methoxy-pyridin-2-ylmethyl)-1H-pyrazol-3-yl]-2-(4-isopropyl-phenyl)-acetamide] | 75 |
| CCn1ncc2cc(CC(=O)Nc3ccn(Cc4ccc(C)c(C#N)n4)n3)ccc21 [Example 370, N-[1-(6-Cyano-5-methyl-pyridin-2-ylmethyl)-1H-pyrazol-3-yl]-2-(1-ethyl-1H-indazol-5-yl)-acetamide] | 578 |
| O=C(Cc1ccc(-c2ncon2)cc1)Nc1ccn(Cc2ccc(F)c(F)c2)n1 [Example 236, N-[1-(3,4-Difluoro-benzyl)-1H-pyrazol-3-yl]-2-(4-[1,2,4]oxadiazol-3-yl-phenyl)-acetamide] | 18 |
| CN(c1ccc(CC(=O)Nc2ccn(Cc3ccc(C#N)cn3)n2)cn1)C1CC1 [Example 164, N-[1-(5-Cyano-pyridin-2-ylmethyl)-1H-pyrazol-3-yl]-2-[6-(cyclopropyl(methyl)amino)-pyridin-3-yl]-acetamide] | 568 |
